In patent publication US12653797B2, “Tablet and method for manufacturing same” (AYUMI PHARMACEUTICAL CORPORATION, priority 2020, dated 2026):

Assay: Measurement of the particle diameter of the acetaminophen active pharmaceutical ingredients (dry laser diffraction)
Type: physicochemical
Conditions: dispersion air pressure 0.5 bar
From the text: There may be some differences between manufacturing lots. In addition, the volume-average particle diameter (MV) of the present acetaminophen active pharmaceutical ingredient can be in the range from 100 to 350 μm and may be in the range from 120 to 330 μm. There may be some differences between manufacturing lots. The particle size distribution in the present invention is acquired by evaluation of the volumetric distribution using dry particle diameter measurement by a laser diffraction method (Laser Micron Sizer LMS-2000e (Seishin Enterprise Co., Ltd.)). D50 is the particle diameter at the 50% accumulation of the individual volumes from the small diameter side of the particle size distribution, and is referred to as the median particle diameter. (3) Measurement of the Particle Diameter of the Acetaminophen Active Pharmaceutical Ingredients The acetaminophen active pharmaceutical ingredients were subjected to dry measurement of the particle diameter by a laser diffraction method. A Laser Micron Sizer LMS-2000e (Seishin Enterprise Co., Ltd.) was used for measurement of the particle size distribution. The measurement was carried out at a dispersion compressed air pressure of 0.5 bar.
With `CC(=O)Nc1ccc(O)cc1` [AA API b, acetaminophen] the D10 was 62 μm, the “D50 (median particle diameter)” value was 191 μm and the D90 was 353 μm. The “MV (volume-average particle diameter)” value was 202 μm.
With `CC(=O)Nc1ccc(O)cc1` [AA API e, acetaminophen] the D10 was 5.7 μm, the “D50 (median particle diameter)” value was 26 μm and the D90 was 116 μm. The “MV (volume-average particle diameter)” value was 46 μm.
With `CC(=O)Nc1ccc(O)cc1` [AA API f, acetaminophen] the D10 was 42 μm, the “D50 (median particle diameter)” value was 202 μm and the D90 was 426 μm. For the same compound, the “MV (volume-average particle diameter)” value was 222 μm.
With `CC(=O)Nc1ccc(O)cc1` [AA API a, acetaminophen] the D10 was 73 μm, the “D50 (median particle diameter)” value was 224 μm and the D90 was 404 μm. The “MV (volume-average particle diameter)” value was 234 μm.
For `CC(=O)Nc1ccc(O)cc1` [AA API g, acetaminophen], the D10 was 125 μm, the “D50 (median particle diameter)” value was 288 μm and the D90 was 516 μm. For the same compound, the “MV (volume-average particle diameter)” value was 306 μm.
For `CC(=O)Nc1ccc(O)cc1` [AA API d, acetaminophen], the D10 was 75 μm, the “D50 (median particle diameter)” value was 419 μm and the D90 was 855 μm. For the same compound, the “MV (volume-average particle diameter)” value was 452 μm.
For `CC(=O)Nc1ccc(O)cc1` [AA API c, acetaminophen], the D10 was 27 μm, the “D50 (median particle diameter)” value was 147 μm and the D90 was 357 μm. For the same compound, the “MV (volume-average particle diameter)” value was 173 μm.
